The values below come from the supplement of paper PMC10307832.

Holding throughout (test): relative viability (nuclei count vs DMSO), 5 days (fraction); higher = more cells survive
Compound in experiment [1]: C1=CC2=C(C=C(C(=C2N=C1)O)N=NC3=CC4=C(C=C3)C=C(C=C4)S(=O)(=O)O)S(=O)(=O)O + CCNC(=O)c1noc(-c2cc(C(C)C)c(O)cc2O)c1-c1ccc(CN2CCOCC2)cc1 [Luminespib] (partner 0.01 µM)
In short, it runs like this: (§1)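 One day after seeding in 1536-well plates, lung cancer cell lines were dosed by pin tool. Dosing was either single-drug or a fixed anchor-drug dose plus five library-drug doses (not always all listed) in √10 steps. After 5 days, nuclei were stained in one fix-and-stain step and counted on 4× images, and relative viability is the nuclei count of treated wells over that of vehicle wells, given as the median of duplicate plates.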

Compound in experiment [2]: C1=CC2=C(C=C(C(=C2N=C1)O)N=NC3=CC4=C(C=C3)C=C(C=C4)S(=O)(=O)O)S(=O)(=O)O + C[C@@H](Oc1cc(-c2cnn(C3CCNCC3)c2)cnc1N)c1c(Cl)ccc(F)c1Cl [Crizotinib] (partner 1 µM)
In short, it runs like this:
as §1

Compound in the experiment “AT-7519 + OSI-027”: O=C(NC1CCNCC1)c1n[nH]cc1NC(=O)c1c(Cl)cccc1Cl [AT-7519] + COc1cccc2cc(-c3nc([C@H]4CC[C@H](C(=O)O)CC4)n4ncnc(N)c34)[nH]c12 [OSI-027] (partner 0.5 µM)
In short, it runs like this: as §1

Compound in experiment [3]: C1=CC2=C(C=C(C(=C2N=C1)O)N=NC3=CC4=C(C=C3)C=C(C=C4)S(=O)(=O)O)S(=O)(=O)O + Nc1nc2[nH]cc(CCc3ccc(C(=O)N[C@@H](CCC(=O)O)C(=O)O)cc3)c2c(=O)[nH]1 [Pemetrexed] (partner 0.2 µM)
The procedure, abridged:
as §1

In the case of NCI-H2170, the relative viability in experiment [1] (first compound 0.08 µM) turned out to be 0.83; in experiment [1] (first compound 0.253 µM), 0.63; in experiment [1] (first compound 0.8 µM), 0.672; in experiment [1] (first compound 2.53 µM), 0.731; in experiment [1] (first compound 8 µM) it was 0.895; in experiment [2] (first compound 0.08 µM), 1.38. Also, the relative viability was found to be 1.1 in experiment [2] (first compound 0.253 µM); 1.15 in experiment [2] (first compound 0.8 µM); 1.23 in experiment [2] (first compound 2.53 µM); 1.2 in experiment [2] (first compound 8 µM); 0.782 with AT-7519 + OSI-027 (first compound 0.01 µM); 0.685 in the experiment with AT-7519 + OSI-027 (first compound 0.03162 µM). The relative viability is 0.687 with AT-7519 + OSI-027 (first compound 0.3162 µM); 0.719 in the experiment with AT-7519 + OSI-027 (first compound 1 µM); 0.288 in experiment [3] (first compound 0.08 µM); 0.281 in experiment [3] (first compound 0.253 µM); 0.284 in experiment [3] (first compound 0.8 µM); 0.266 in experiment [3] (first compound 2.53 µM). The relative viability in experiment [3] (first compound 8 µM) was determined as 0.251.

As to NCI-H2228, the relative viability was found to be 0.136 in experiment [1] (first compound 0.08 µM); 0.13 in experiment [1] (first compound 0.253 µM); 0.134 in experiment [1] (first compound 0.8 µM); 0.166 in experiment [1] (first compound 2.53 µM); 0.0984 in experiment [1] (first compound 8 µM); 0.399 in experiment [2] (first compound 0.08 µM). Further, the relative viability in experiment [2] (first compound 0.253 µM) came to 0.597; in experiment [2] (first compound 0.8 µM), 0.642; in experiment [2] (first compound 2.53 µM) it was 0.587; in experiment [2] (first compound 8 µM), 0.482; in the experiment with AT-7519 + OSI-027 (first compound 0.01 µM) it was 0.517; in the experiment with AT-7519 + OSI-027 (first compound 0.03162 µM), 0.586. The relative viability with AT-7519 + OSI-027 (first compound 0.3162 µM) worked out at 0.469; in the experiment with AT-7519 + OSI-027 (first compound 1 µM) it was 0.446; in experiment [3] (first compound 0.08 µM) it was 0.305; in experiment [3] (first compound 0.253 µM), 0.312; in experiment [3] (first compound 0.8 µM), 0.328; in experiment [3] (first compound 2.53 µM) it was 0.334. Besides, the relative viability in experiment [3] (first compound 8 µM) worked out at 0.324.

For NCI-H2347, the relative viability in experiment [1] (first compound 0.08 µM) worked out at 0.77; in experiment [1] (first compound 0.253 µM) it was 0.523; in experiment [1] (first compound 0.8 µM), 0.36; in experiment [1] (first compound 2.53 µM) it was 0.824; in experiment [1] (first compound 8 µM), 0.317; in experiment [2] (first compound 0.08 µM), 0.691. The relative viability in experiment [2] (first compound 0.253 µM) turned out to be 0.674; in experiment [2] (first compound 0.8 µM) it was 0.651; in experiment [2] (first compound 2.53 µM) it was 0.768; in experiment [2] (first compound 8 µM), 0.636; with AT-7519 + OSI-027 (first compound 0.01 µM), 0.457; in the experiment with AT-7519 + OSI-027 (first compound 0.03162 µM), 0.389. For the same cell line, the relative viability was 0.358 with AT-7519 + OSI-027 (first compound 0.3162 µM); 0.229 in the experiment with AT-7519 + OSI-027 (first compound 1 µM); 0.44 in experiment [3] (first compound 0.08 µM); 0.474 in experiment [3] (first compound 0.253 µM); 0.444 in experiment [3] (first compound 0.8 µM); 0.403 in experiment [3] (first compound 2.53 µM). For the same cell line, the relative viability in experiment [3] (first compound 8 µM) is 0.343.

Regarding NCI-H2405, the relative viability amounted to 0.891 in experiment [1] (first compound 0.08 µM); 0.79 in experiment [1] (first compound 0.253 µM); 0.632 in experiment [1] (first compound 0.8 µM); 0.827 in experiment [1] (first compound 2.53 µM); 0.753 in experiment [1] (first compound 8 µM); 0.927 in experiment [2] (first compound 0.08 µM). Moreover, the relative viability in experiment [2] (first compound 0.253 µM) is 0.806; in experiment [2] (first compound 0.8 µM) it was 0.808; in experiment [2] (first compound 2.53 µM), 0.847; in experiment [2] (first compound 8 µM), 0.869; with AT-7519 + OSI-027 (first compound 0.01 µM), 0.593; with AT-7519 + OSI-027 (first compound 0.03162 µM), 0.655. Moreover, the relative viability with AT-7519 + OSI-027 (first compound 0.3162 µM) came out at 0.595; with AT-7519 + OSI-027 (first compound 1 µM), 0.478; in experiment [3] (first compound 0.08 µM), 1.1; in experiment [3] (first compound 0.253 µM), 1.08; in experiment [3] (first compound 0.8 µM), 0.976; in experiment [3] (first compound 2.53 µM), 1.11. For the same cell line, the relative viability in experiment [3] (first compound 8 µM) is 0.982.

Turning to NCI-H3122, the relative viability in experiment [1] (first compound 0.08 µM) came to 0.0606; in experiment [1] (first compound 0.253 µM), 0.111; in experiment [1] (first compound 0.8 µM), 0.0925; in experiment [1] (first compound 2.53 µM), 0.0947; in experiment [1] (first compound 8 µM), 0.102; in experiment [2] (first compound 0.08 µM) it was 0.285. The relative viability in experiment [2] (first compound 0.253 µM) amounted to 0.29; in experiment [2] (first compound 0.8 µM) it was 0.275; in experiment [2] (first compound 2.53 µM), 0.271; in experiment [2] (first compound 8 µM), 0.274; with AT-7519 + OSI-027 (first compound 0.01 µM), 1.09; in the experiment with AT-7519 + OSI-027 (first compound 0.03162 µM) it was 0.871. Also, the relative viability with AT-7519 + OSI-027 (first compound 0.3162 µM) came out at 0.357; with AT-7519 + OSI-027 (first compound 1 µM) it was 0.152; in experiment [3] (first compound 0.08 µM), 0.194; in experiment [3] (first compound 0.253 µM), 0.201; in experiment [3] (first compound 0.8 µM), 0.202; in experiment [3] (first compound 2.53 µM), 0.189. Further, in experiment [3] (first compound 8 µM), the relative viability turned out to be 0.182.

For PC-3 [JPC-3], the relative viability in experiment [1] (first compound 0.08 µM) came to 0.576; in experiment [1] (first compound 0.253 µM) it was 0.708; in experiment [1] (first compound 0.8 µM) it was 0.663; in experiment [1] (first compound 2.53 µM), 0.729; in experiment [1] (first compound 8 µM), 0.761; in experiment [2] (first compound 0.08 µM) it was 1.07. In addition, the relative viability worked out at 1.02 in experiment [2] (first compound 0.253 µM); 0.999 in experiment [2] (first compound 0.8 µM); 0.978 in experiment [2] (first compound 2.53 µM); 0.966 in experiment [2] (first compound 8 µM); 0.706 with AT-7519 + OSI-027 (first compound 0.01 µM); 0.904 in the experiment with AT-7519 + OSI-027 (first compound 0.03162 µM). Besides, the relative viability with AT-7519 + OSI-027 (first compound 0.3162 µM) amounted to 0.697; with AT-7519 + OSI-027 (first compound 1 µM), 0.696; in experiment [3] (first compound 0.08 µM), 1.07; in experiment [3] (first compound 0.253 µM), 1.03; in experiment [3] (first compound 0.8 µM), 1.04; in experiment [3] (first compound 2.53 µM) it was 1.16. For the same cell line, in experiment [3] (first compound 8 µM), the relative viability came to 0.999.
